The source of these data is ChEMBL document CHEMBL4699534, “Optimizing PEG-Extended Apelin Analogues as Cardioprotective Drug Leads: Importance of the KFRR Motif and Aromatic Head Group for Improved Physiological Activity” (J Med Chem, 2020).

A short description of data set [1]: Lipophilicity, log D of the compound in pH 7.4 PBS by LC/MS detection based shake flask assay. In kind it is physicochemical.
Data set [2] has as its target T1, Apelin receptor (Rattus norvegicus, UniProt Q9JHG3).
T1 sequence (Q9JHG3 whole entry): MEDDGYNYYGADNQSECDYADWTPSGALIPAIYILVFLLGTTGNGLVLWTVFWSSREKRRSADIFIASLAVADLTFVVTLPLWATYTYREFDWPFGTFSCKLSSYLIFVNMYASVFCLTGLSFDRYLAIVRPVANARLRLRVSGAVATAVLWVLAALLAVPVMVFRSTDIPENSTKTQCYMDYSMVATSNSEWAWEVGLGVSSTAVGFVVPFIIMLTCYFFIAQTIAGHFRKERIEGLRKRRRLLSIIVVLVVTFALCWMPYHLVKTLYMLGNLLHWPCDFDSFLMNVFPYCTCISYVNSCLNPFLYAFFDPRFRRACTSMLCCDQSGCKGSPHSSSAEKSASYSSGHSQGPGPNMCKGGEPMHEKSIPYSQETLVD
Briefly: Displacement of [125I]-pyr-1-apelin-13 from EGFP-tagged wild-type rat apelin receptor expressed in CHO cell membranes by gamma counting method. Further details: species or system Cell membrane. On the technique in general: Loss of bound radioactivity is the signal in a displacement assay; it reports binding, not function.

Data set [3] can be described thus: Half life in mouse plasma at 400 uM by HPLC analysis. It counts as ADME, cell-free.
Data set [4] deals with Heart. In words: Cardioprotective activity in mouse Langendorff heart perfusion and ischemia-reperfusion injury model assessed as left ventricle developed pressure at 1 uM dosed at start of reperfusion for 10 mins. In kind it is functional.
Data set [5] addresses T2, Apelin receptor (Homo sapiens, UniProt P35414).
T2 sequence (P35414 whole entry): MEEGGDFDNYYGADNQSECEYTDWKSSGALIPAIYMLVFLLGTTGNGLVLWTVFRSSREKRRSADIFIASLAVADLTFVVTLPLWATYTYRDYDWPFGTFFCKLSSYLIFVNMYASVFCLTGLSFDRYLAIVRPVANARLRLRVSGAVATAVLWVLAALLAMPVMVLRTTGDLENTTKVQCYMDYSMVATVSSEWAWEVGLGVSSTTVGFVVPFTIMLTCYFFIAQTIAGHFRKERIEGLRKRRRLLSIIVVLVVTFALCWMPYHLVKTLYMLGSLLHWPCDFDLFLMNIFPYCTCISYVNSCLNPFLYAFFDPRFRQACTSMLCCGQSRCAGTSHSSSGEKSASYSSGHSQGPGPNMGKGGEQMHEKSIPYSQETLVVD
In words: Activation of APJ receptor (unknown origin) expressed in Chem-5 cells assessed as stimulation of Ca2+ mobilization by Calcium 6-GF dye based fluorescence based assay. It counts as functional, cell-based.

Data set [6] can be described thus: Half life in human plasma at 400 uM by HPLC analysis. In kind it is ADME, cell-free.
Another data set deals with Mus musculus. In words: Cardioprotective activity in C57BL/6 mouse assessed as reduction in mean arterial blood pressure at 1.4 uM/kg, iv measured after 15 mins relative to control. Conditions: 0.25 h. In kind it is functional.
Data set [7] in a line: Protein binding in 55% mouse plasma at 100 uM incubated for 3 hrs by LC/MS detection based equilibrium dialysis. It counts as ADME, cell-free. Conditions: 55% plasma, read-out: PPB (converted). (In equilibrium dialysis free small molecules cross a membrane that holds back macromolecules.)
For data set [8], the system named is Heart. Briefly: Cardioprotective activity in mouse Langendorff heart perfusion and ischemia-reperfusion injury model assessed as maximum derivative of change in systolic blood pressure over time at 1 uM dosed at start of reperfusion for 10 mins. In kind it is functional.
Data set [9] in a line: Protein binding in 55% human plasma at 100 uM incubated for 3 hrs by LC/MS detection based equilibrium dialysis. In kind it is ADME, cell-free. Conditions: 55% plasma, read-out: PPB (converted).

Non-standard residues stand in square brackets, D forms with d. Residues, ends and D or L forms follow the SMILES beside them. *: point of attachment. Phe(4-Br) = N[C@@H](Cc1ccc(Br)cc1)C(=O)O; PEG7 = NCCOCCOCCOCCOCCOCCOCCOCCC(=O)O; Fmoc = O=C(OCC1c2ccccc2-c2ccccc21)*; NMeL = CN[C@@H](CC(C)C)C(=O)O; Nle = CCCC[C@H](N)C(=O)O; Cbz = O=C(OCc1ccccc1)*; Aib = CC(C)(N)C(=O)O

One may read the logD as lipophilicity at a set pH, counting ionised and neutral species. The low end stands for lower lipophilicity, the high end for higher lipophilicity. Broadly, the IC50 is the concentration needed to halve the response being measured. One may read the half-life as the time needed for the level to fall by half in the phase considered. A high value points to slow loss. By EC50 is commonly meant the concentration that produces a half-maximal response. In data set [1], `CCCC[C@H](NC(=O)[C@@H]1CCCN1C(=O)CNC(=O)[C@H](CCCCN)NC(=O)[C@H](Cc1c[nH]cn1)NC(=O)[C@H](CO)NC(=O)[C@H](CC(C)C)N(C)C(=O)[C@H](CCCNC(=N)N)NC(=O)[C@@H]1CCCN1C(=O)[C@H](CCCNC(=N)N)NC(=O)[C@H](CCC(N)=O)NC(=O)[C@H](CCCNC(=N)N)NC(=O)[C@H](CCCNC(=N)N)NC(=O)[C@H](Cc1ccccc1)NC(=O)[C@H](CCCCN)NC(=O)CCOCCOCCOCCOCCOCCOCCOCCNC(=O)OCc1ccccc1)C(=O)NC(C)(C)C(=O)N[C@@H](Cc1ccc(Br)cc1)C(=O)O` ({Cbz-PEG7}-KFRRQRPR[NMeL]SHKGP[Nle][Aib][Phe(4-Br)]-OH) gave a log distribution coefficient (logD) of -1.54. The same compound showed a 50% inhibitory concentration (IC50) on Apelin receptor [2] of 1.91 nM. Further, the figures for the half-life at 400 µM in data set [3] and in data set [6] were 2.9 h and 18.2 h, respectively. For the same compound, the Activity in the data set on Heart [4] is given as 119 mmHg; in the data set with Mus musculus it was 43 mmHg. For the same compound, on Apelin receptor [5], the EC50 is 6.17 nM. Further, the fraction unbound at 3 h, 100 µM is 0.17 in data set [7] and 0.15 in data set [9]. Moreover, the dP/dt max in the data set with Heart [8] was 2600 mmHg/s.
Take `CCCC[C@H](NC(=O)[C@@H]1CCCN1C(=O)CNC(=O)[C@H](CCCCN)NC(=O)[C@H](Cc1c[nH]cn1)NC(=O)[C@H](CO)NC(=O)[C@H](CC(C)C)N(C)C(=O)[C@H](CCCNC(=N)N)NC(=O)[C@@H]1CCCN1C(=O)[C@H](CCCNC(=N)N)NC(=O)[C@H](CCC(N)=O)NC(=O)[C@H](CCCNC(=N)N)NC(=O)[C@H](CCCNC(=N)N)NC(=O)[C@H](Cc1ccccc1)NC(=O)[C@H](CCCCN)NC(=O)CCOCCOCCOCCOCCOCCOCCOCCNC(=O)OCC1c2ccccc2-c2ccccc21)C(=O)NC(C)(C)C(=O)N[C@@H](Cc1ccc(Br)cc1)C(=O)O` ({Fmoc-PEG7}-KFRRQRPR[NMeL]SHKGP[Nle][Aib][Phe(4-Br)]-OH): the logD in data set [1] was -1.45. On Apelin receptor [2], this compound had an IC50 of 0.55 nM. For the same compound, the half-life at 400 µM in [3] is 2.8 h; in data set [6] it was 27 h. Also, the Activity in the data set with Heart [4] was 90 mmHg; with Mus musculus, 47 mmHg. The EC50 on Apelin receptor [5] is 2.51 nM. The fraction unbound at 3 h, 100 µM in [7] was 0.11; in [9], 0.06. In addition, in the data set with Heart [8], the dP/dt max was 2050 mmHg/s.
